What was measured:
[1] = test system: crab-eating macaques (Macaca fascicularis); assay: Sleep latencies at nighttime in monkeys (EEG/EMG/EOG sleep stage classification); assay type: in vivo; settings: vs control
Description: (§1) Six female crab-eating macaques (Macaca fascicularis), weighing 2.8-4.2 kg, were housed individually in a room maintained at 24±1° C. with a 12-h light/dark cycle (light on 6:00). Under sodium pentobarbital anesthesia, stainless steel screw and bipolar electrodes for electroencephalogram (EEG), electromyogram (EMG) and electro-oculogram (EOG) were implanted. After recovery from surgery, the monkeys were well habituated to the recording chamber (60×60×80 cm) located in a sound-proof and electrically shielded room. Compound A (0.003 mg/kg) and/or triazolam (0.03 mg/kg) were given orally 17:50-17:55. Compound A and triazolam were suspended in 0.5% methylcellulose solution. The control monkey was given 0.5% MC. The behaviors of subjects were observed using a video camera with infrared light sensitivity. EEG, EMG and EOG were recorded on a MO disk with an electroencephalograph (EE5518, NEC Medical Systems, Tokyo, Japan). All recordings were carried out from 18:00 until 6:00. The EEG power spectral analysis was also performed continuously by means of a fast Fourier transform (FFT) system equipped with a personal computer. […] Latencies of each sleep stage (the time until the first appearance of each sleep stage) were determined from 18:00. The occurrence of each sleep stage at nighttime and other sleep parameters were also determined.

[2] = test system: crab-eating macaques (Macaca fascicularis); assay: Observation of general behavior of monkeys (video camera); assay type: in vivo; settings: triazolam 0.03 mg/kg p.o. alone
Description: as §1

Structure (SMILES) | effect on the sleep latencies ([1]; triazolam 0.03 mg/kg p.o. alone) | ataxia and sedation [2] | effect on general behavior [2] | effect on the latency of any sleep stages ([1]; compound A 0.003 mg/kg p.o. alone)
Cc1nnc2n1-c1ccc(Cl)cc1C(c1ccccc1Cl)=NC2 [triazolam, 8-chloro-6-(2-chlorophenyl)-1-methyl-4H-[1,2,4]triazolo[4,3-a][1,4]benzodiazepine] | no significant effects | did not cause | did not affect | 
CCC(=O)NCC[C@@H]1CCc2ccc3c(c21)CCO3 [compound A, (S)-N-[2-(1,6,7,8-tetrahydro-2H-indeno[5,4-b]furan-8-yl)ethyl]propionamide] |  |  |  | no significant effects

— patent US6348485B1, “Method for treating or preventing sleep disorders” (Takeda Chemical Industries, Ltd., priority 1998, dated 2002)
